Data on six compounds can be found in patent publication US20030113330A1, “Methods for treating pulmonary fibrosis” (priority 1999, published 2003).

“Also recorded” adds a separate entry of the source. Where a SMILES comes first, the peptide text is derived from it. The star is where a group is joined. Cbz = O=C(OCc1ccccc1)*; CH2F = FC*

Assay [1] has as its system primary rat AEC. The assay is described as follows: Fas ligand-induced apoptosis of primary rat alveolar epithelial cells. Type of assay: cell-based. The note with it: lisinopril 500 ng/ml; for inhibition of Fas ligand-induced apoptosis of primary rat AEC (words): captopril, caspase inhibitors 60 uM. The protocol: (§1) Lung Cell Isolation and Detection of Apoptosis In Vitro. Primary alveolar epithelial cells (AEC) were isolated from adult male Wistar rats as described above. The primary cells were studied at day two of culture, a time at which they are type II cell-like by accepted morphologic and biochemical criteria, see Paine et al., Am. J. Physiol. […] All cells were seeded in 24-well or 6-well chambers, and all experiments were conducted at subconfluent densities of 80-90% in serum-free Ham's F12 medium. Test reagents were diluted with Ham's F12 medium and were applied for 20 hours at 37° C. in a 5% CO2 incubator.
Detection of apoptotic cells with propidium iodide (PI) was conducted as described above, following digestion of ethanol-fixed cells with DNAse-free RNAse in PBS containing 5 ug/ml PI.
Expression of FAS by alveolar epithelial cells is observed during bleomycin-induced fibrogenesis in mice. See Hagimoto, et al., Am. J. Respir. Cell Mol. Biol. 16:91-101 (1997). […] Apoptosis was detected by quantitation of fragmented nuclei (see above).
Cell Culture and Detection of Apoptosis. The human lung adenocarcinoma cell line A549 was obtained from American Type Culture Collection and cultured in Ham's F12 medium supplemented with 10% fetal bovine serum (FBS). Primary alveolar epithelial cells were isolated from adult male Wistar rats as described earlier (Uhal, B. D., I. Joshi, A. True, S. Mundle, A. Raza, A. Pardo and M. Selman. Fibroblasts isolated after fibrotic lung injury induce apoptosis of alveolar epithelial cells in vitro. Am. J. Physiol. 269:L819-L828, 1995); Wang, R., A. Zagariya, 0. Ibarra-Sunga, C. […] Am. J. Physiol. 276:L885-L889 (1999)). […] All cells were seeded in 24-well or 6-well chambers, and all experiments were conducted at subconfluent densities of 80-90% in serum-free Ham's F12 medium. Test reagents were diluted with serum-free Ham's F12 medium and were applied under serum-free conditions for 20 hours at 37C. in a 5% CO2 incubator. Detection of apoptotic cells with propidium iodide (PI) was conducted as described above Am. J. Physiol. 275:L1013-1017 (1998); Uhal et al., following digestion of ethanol-fixed cells with DNAse-free RNAse in PBS containing 5 μg/ml PI. In all assays, detached cells were retained by centrifugation of the culture vessels during fixation with 70% ethanol, or by retention of culture media and recovery by centrifugation before assay.
Apoptosis was detected by nuclear fragmentation as described above.

Assay [2] has as its system A549 cells. To be noted: for inhibition of amiodarone-induced apoptosis: captopril 500 ng/ml, saralasin 50 ug/ml, Losartan 5 pg/ml. As for the experimental part:
as §1, with “The human lung adenocarcinoma cell line A549 (ATCC) was cultured in Ham's F12 medium supplemented with 10% fetal bovine serum (FBS).” for “Lung Cell Isolation and Detection of Apoptosis In Vitro.”, “cells” for “cells (AEC)”, “rats.” for “rats as described above.”, “criteria.” for “criteria, see Paine et al., Am. J. Physiol.”, “37C.” for “37° C.”
(§2) Apoptotic cells were detected using propidium iodide (PI) following digestion of ethanol-fixed cells with DNAse-free RNAse in PBS containing 5 ug/ml PI. […] In replicate culture vessels, necrosis was detected as the loss of exclusion of PI after application of the vital dye directly to the cell culture medium at 5 ug/ml final concentration. Red fluorescent (PI-POSITIVE) cells (>570 nm) were scored over the subsequent hour as a percentage of the total cells in any given field. A minimum of 4 separate fields were scored in each of three separate culture vessels per experiment condition; all experiments were performed at least twice and the data were compiled. Although all necrotic cells are PI-positive, some apoptotic cells may also take up the dye but these comprise a minor fraction of the total dead cell population.
(§3) In all assays, detached cells were retained by centrifugation of the culture vessel at 300×g for 10 minutes with a centrifuge rotor designed for culture plates. For detection of necrosis (dye exclusion of PI), the PI was added directly to the cell culture medium immediately before centrifugation of the culture vessel. For detection of apoptosis, ethanol was added directly to the cell culture medium to a final concentration of 70% immediately before the centrifugation. Afterward, the ethanol was carefully removed and the total cell population (attached plus sedimented detached cells) were stained with PI as described above.

The subject of assay [3] is primary rat AEC. To be noted: for inhibition of amiodarone-induced apoptosis: captopril 500 ng/ml, saralasin 50 ug/ml, Losartan 5 pg/ml, amiodarone 2.5 ug/ml for chelerythrine, orthovanadate. As for the experimental part: as §1, with “The human lung adenocarcinoma cell line A549 (ATCC) was cultured in Ham's F12 medium supplemented with 10% fetal bovine serum (FBS).” for “Lung Cell Isolation and Detection of Apoptosis In Vitro.”, “cells” for “cells (AEC)”, “rats.” for “rats as described above.”, “criteria.” for “criteria, see Paine et al., Am. J. Physiol.”, “37C.” for “37° C.”
as §2, §3

The test system of assay [4] is A549 cells. The assay is described as follows: Amiodarone-induced net cell loss in A549 cultures. In kind it is cell-based, human. The note with it: A549.
Protocol: (§4) Primary alveolar epithelial cells were isolated from adult male Wistar rats. The primary cells were studied at day two of culture, a time at which they are type II cell-like by accepted morphologic and biochemical criteria. All primary cell preparations were of better than 90% purity assessed by acridine orange staining. All cells were seeded in 24-well or 6-well chambers, and all experiments were conducted at subconfluent densities of 80-90% in serum-free Ham's F12 medium. Test reagents were diluted with Ham's F12 medium and were applied for 20 hours at 37C. in a 5% CO2 incubator.
(§5) Importantly, unattached cells were recovered and included in the analyses, and thus the data represent true loss of cells rather than simple detachment from the substratum.
Assay [5] deals with primary rat AEC. Briefly: Amiodarone-induced net cell loss in primary rat AEC cultures. In kind it is cell-based. To be noted: primary rat AEC.
Protocol: as §4, §5

What is called inhibition is the drop in the measured response relative to a control, in per cent.

`COC(=O)C[C@H](NC(=O)[C@H](C)NC(=O)[C@@H](NC(=O)OCc1ccccc1)C(C)C)C(=O)CF` [ZVAD-fmk, N-benzylcarboxy-Val-Ala-Asp-[O-Me]-CH2F] (Cbz-Val-Ala-Asp(OMe)-CH2F): the “inhibition of Fas ligand-induced apoptosis of primary rat AEC (words)” value (“inhibition … (words)” for short) in the assay with primary rat AEC [1] was “comparable efficacy to inhibit apoptosis”; in the assay on primary rat AEC [1] (listed as ZVADfmk), “abrogate”. The “inhibition of apoptosis in response to amiodarone” value in the assay on A549 cells [2] (A549) is given as 81%; in the assay with primary rat AEC [3] (primary rat AEC), 97%. In addition, the “effect on amiodarone-induced decrease in total cell number” value (“effect on amiodarone-induced decrease” for short) in the assay on A549 cells [4] and in the assay with primary rat AEC [5] was “significantly inhibited” in each case. In addition, in the assay on primary rat AEC [5], the “net cell loss abrogated” value turned out to be 75%.

As to `COc1ccc2c(c1OCc1ccccc1)C[C@@H](C(=O)O)N(C(=O)C(c1ccccc1)c1ccccc1)C2` [PD126055], the “inhibition … (words)” value with primary rat AEC [1] is listed as “unable to significantly inhibit”.

For the compound `CNCC(=O)N[C@@H](CCCN=C(N)N)C(=O)N[C@H](C(=O)N[C@@H](Cc1ccc(O)cc1)C(=O)N[C@H](C(=O)N[C@@H](Cc1cnc[nH]1)C(=O)N1CCC[C@H]1C(=O)N[C@@H](C)C(=O)O)C(C)C)C(C)C` [saralasin], the “inhibition of FASL-induced apoptosis” value with primary rat AEC [1] (FASL 25 ng/ml, saralasin 5 mg/ml) turned out to be 92%. The “inhibition … (words)” value with primary rat AEC [1] is on record as “blocked”. Besides, the “inhibition of amiodarone-induced apoptosis” value with A549 cells [2] and with primary rat AEC [3] was “inhibited” throughout. The “effect on amiodarone-induced decrease” value in the assay with A549 cells [4] and in the assay with primary rat AEC [5] was “significantly inhibited” throughout.

Regarding `NCCCC[C@H](N[C@@H](CCc1ccccc1)C(=O)O)C(=O)N1CCC[C@H]1C(=O)O` [lisinopril], in the assay on primary rat AEC [1] (Rattus norvegicus, Epithelial cell, read-out: inhibition of FASL-induced apoptosis, FASL 25 ng/ml, saralasin 5 mg/ml), the inhibition at 0.5 µg/mL amounted to 87%. In addition, the “inhibition … (words)” value in the assay with primary rat AEC [1] is “blocked”.

For the compound `C[C@H](CS)C(=O)N1CCC[C@H]1C(=O)O` [captopril], the “inhibition … (words)” value in the assay on primary rat AEC [1] is recorded as “comparable efficacy to inhibit apoptosis; also recorded: blocked”. The “inhibition of amiodarone-induced apoptosis” value in the assay with A549 cells [2] and with primary rat AEC [3] was “inhibited” in each case. In addition, the “effect on amiodarone-induced decrease” value with A549 cells [4] and in the assay with primary rat AEC [5] was “significantly inhibited” throughout.

In the case of `CCc1nc2c(C)cc(C)nc2n1Cc1ccc(-c2ccccc2-c2nn[nH]n2)cc1` [L158809], the “inhibition … (words)” value in the assay with primary rat AEC [1] was “could block”.
